Measurements published in patent publication US6652890B2, “Tea catechins as cancer specific proliferation inhibitors” (Purdue Research Foundation, priority 1999, dated 2003).
Entries after “also recorded” stand apart in the source; their conditions may differ. Where two headings read alike, the source gives them in different places.

How the values were obtained:
[1] = target: T1, tNOX activity of intact 4T1 mouse mammary cells (Mus musculus, UniProt Q8R0Z2); experiment: Inhibition of tNOX (NADH oxidase) activity of intact 4T1 cells; format: cell-based; details: for Inhibition of residual tNOX remaining in the presence of EGCg, EC>90: estimated
T1 construct: endogenous in cells; host or cells: 4T1 mouse mammary carcinoma cells (intact)
T1 sequence (Q8R0Z2 1-598): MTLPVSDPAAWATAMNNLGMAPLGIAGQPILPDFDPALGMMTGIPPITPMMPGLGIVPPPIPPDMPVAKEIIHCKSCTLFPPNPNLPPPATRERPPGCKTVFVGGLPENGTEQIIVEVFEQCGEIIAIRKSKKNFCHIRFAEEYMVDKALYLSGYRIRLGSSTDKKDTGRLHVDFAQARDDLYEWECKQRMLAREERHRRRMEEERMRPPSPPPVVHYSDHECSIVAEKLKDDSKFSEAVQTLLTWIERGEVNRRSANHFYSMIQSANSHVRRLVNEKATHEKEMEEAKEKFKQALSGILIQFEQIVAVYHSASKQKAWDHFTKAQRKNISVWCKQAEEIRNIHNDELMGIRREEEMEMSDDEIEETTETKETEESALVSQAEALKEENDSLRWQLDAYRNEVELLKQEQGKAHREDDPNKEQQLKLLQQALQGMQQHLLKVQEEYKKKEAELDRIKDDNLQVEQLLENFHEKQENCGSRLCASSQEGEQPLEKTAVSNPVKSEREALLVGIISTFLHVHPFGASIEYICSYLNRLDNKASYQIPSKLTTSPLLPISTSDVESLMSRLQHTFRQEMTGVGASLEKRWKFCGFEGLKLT
Protocol: A mouse mammary tumor subpopulation line 4T1 arising from a BALB/cf C3H mouse was grown in DME-10, Dulbecco's modified Eagle's medium supplemented with 5% fetal calf serum, 5% newborn calf serum, 1 mM mixed non-essential amino acids, 2 mM L-glutamine, penicillin (100 units/ml), and streptomycin (100 μg/ml) (Miller et al., 1987, Brit. J. Can. 56:561-569 and Miller et al., 1990, Invasion Metastasis 10:101-112).
NADH oxidase activity was determined as the disappearance of NADH measured at 340 nm in a reaction mixture containing 25 mM Tris-Mes buffer (pH 7.2), 1 mM KCN, and 150 μM NADH at 37° C. Activity was measured using a Hitachi U3210 spectrophotometer with stirring and continuous recording over two intervals of 5 min each. A millimolar extinction coefficient of 6.22 was used to determine specific activity.
NADH oxidase activity was determined as the disappearance of NADH measured at 340 nm in a reaction mixture containing 25 mM Tris-Mes buffer (pH 7.2), 1 mM KCN, and 150 μM NADH at 37° C. Activity was measured at 340 nm with reference at 430 nm using an SLM Aminco DW-2000 spectrophotometer (Milton Roy, Rochester, N.Y.) in the dual beam mode of operation with stirring and continuous recording over two intervals of 5 min each. A millimolar extinction coefficient of 6.22 was used to determine specific activity.

[2] = system: 4T1 metastatic mouse mammary cancer cells; experiment: Killing of 4T1 metastatic mouse mammary cancer cells in culture; format: cell-based; details: EGCg 10^−7 M, EC 10^−4 M, alone or combined
4T1 mouse mammary cancer = experiment: Preliminary animal study, Balb/c mice with 4T1 mouse mammary cancer; format: in vivo; details: treated for 5 days, 100 μl/day; glaucarubolone 1 mg, EGCg + EC 0.2 + 1.2 mg per animal
[3] = Inhibition of residual tNOX remaining in the presence of EGCg, EC50, estimated, EGCg given as 0.1 mM (title), 10^−6 M (head), 10^−7 M
[4] = EGCg given as 0.1 mM (title), 10^−6 M (head), 10^−7 M

Oc1cc(O)c2c(c1)OC(c1ccc(O)c(O)c1)C(O)C2 (racemic) [C, (±) - catechin]
Effect on NOX activity ([1]; in the presence of 10^−7 M EGCg, listed as Catechin): largely without effect
Effect on NOX activity ([1]; in the presence of 10^−7 M EGCg, listed as ±catechin): little affected

Oc1cc(O)c2c(c1)O[C@H](c1ccc(O)c(O)c1)[C@H](O)C2 [EC, (−) - epicatechin]
Increase in cell number cm^−2 over 72 h · 10^2 [2]: 560 cm^−2 · 10^2
EC50 for tNOX inhibition by (−)-epicatechin ([1]; EGCg concentration 0 M, EGCg alone): No effect
EC50 for tNOX inhibition by (−)-epicatechin ([1]; EGCg concentration 0 M, supplied as Tegreen™): No effect
EC50 ([1]; EGCg concentration 10^−4 M, EGCg alone, read-out: EC50 for tNOX inhibition by (−)-epicatechin): 500 ± 400 nM
EC50 ([1]; EGCg concentration 10^−4 M, supplied as Tegreen™, read-out: EC50 for tNOX inhibition by (−)-epicatechin): 300 ± 200 nM
EC50 ([1]; EGCg concentration 10^−5 M, EGCg alone, read-out: EC50 for tNOX inhibition by (−)-epicatechin): 700 ± 300 nM
EC50 ([1]; EGCg concentration 10^−6 M, EGCg alone, read-out: EC50 for tNOX inhibition by (−)-epicatechin): 150 ± 50 nM
EC50 ([1]; EGCg concentration 10^−6 M, supplied as Tegreen™, read-out: EC50 for tNOX inhibition by (−)-epicatechin): 500 ± 400 nM
EC50 ([1]; EGCg concentration 10^−7 M, EGCg alone, read-out: EC50 for tNOX inhibition by (−)-epicatechin): 200 ± 100 nM
EC50 for tNOX inhibition by (−)-epicatechin ([1]; EGCg concentration 10^−7 M, supplied as Tegreen™): No effect
EC50 for tNOX inhibition by (−)-epicatechin ([1]; EGCg concentration 10^−8 M, EGCg alone): No effect
EC50 for tNOX inhibition by (−)-epicatechin ([1]; EGCg concentration 10^−8 M, supplied as Tegreen™): No effect
EC50 ([1]; in the presence of 10^−7 M EGCg, read-out: EC50 of EC): ~200 nM

O=C(O[C@@H]1Cc2c(O)cc(O)cc2O[C@@H]1c1ccc(O)c(O)c1)c1cc(O)c(O)c(O)c1 [ECG, (−) - epicatechin gallate]
EC50 [1, 3]: 500 nM
Inhibition of residual tNOX remaining in the presence of EGCg, EC>90 [1, 4]: 10^−6 M

Oc1cc(O)c2c(c1)O[C@H](c1cc(O)c(O)c(O)c1)[C@H](O)C2 [EGC, (−) - epigallocatechin]
EC50 [1, 3]: 1000 nM
Inhibition of residual tNOX remaining in the presence of EGCg, EC>90 [1, 4]: 10^−5 M

O=C(O[C@@H]1Cc2c(O)cc(O)cc2O[C@H]1c1cc(O)c(O)c(O)c1)c1cc(O)c(O)c(O)c1 [GCG, gallocatechin gallate]
Inhibition of residual tNOX remaining in the presence of EGCg, EC>90 [1, 4]: Not reached due
Effect on NOX activity ([1]; in the presence of 10^−7 M EGCg): less effective; also recorded: less affected

CC1=CC(=O)[C@@H](O)[C@]2(C)[C@H]3[C@@]4(O)OC[C@]35[C@H]([C@@H](C)[C@H]4O)[C@@H](O)C(=O)O[C@@H]5C[C@@H]12 [Glaucarubolone, glaucarubolone]
Tumor wt (4T1 mouse mammary cancer): 1.5 ± 0.1 g
